# Measurements reported in publication PMC11618052, “Design, synthesis, and antiproliferative activity of new 1,2,3-triazole/quinazoline-4-one hybrids as dual EGFR/BRAF^V600E inhibitors” (RSC Advances, 2024).
# Several values for one entry are separate records, joined by “and”; a condition that tells them apart may be missing. Identical values can stand only once.
# Key:
# [1] = system: Caspase-3; test: Caspase-3 activation assay in MCF-7; format: cell-based, human; details: for Caspase-3 Fold change: MCF-7, versus untreated control; for Caspase-3 Conc.: MCF-7 cancer cell line
# Procedure: Compounds 8g and 8h were evaluated as caspase-3, 8 and Bax activators and as down-regulator of the anti-apoptotic protein Bcl2 against the MCF-7 breast cancer cell line.[40] Appendix A ^† contains more details.
# Compounds 8g and 8h were evaluated as caspase-3 activators against the MCF-7 breast cancer cell line,[40] with results presented in Table 3. […] The compounds 8g and 8h increased the concentration of caspase-3 protein in the MCF-7 cancer cell line, showing levels that were 11 and 10 times higher than the untreated control and higher than staurosporine. […]
# cancer cells, commercially available ELISA kits (Invitrogen) were used according to manufacturer’s instructions.
# 4.2.1.5. Caspase-3 activation assay
# Allow all reagents to reach room temperature before use. Gently mix all liquid reagents prior to use. Determine the number of 8-well strips needed for the assay. Insert these in the frame(s) for current use. Add 100 μl of the Standard Diluent Buffer to the zero standard wells. Well(s) reserved for chromogen blank should be left empty. Add 100 μl of standards and controls or diluted samples to the appropriate microtiter wells. The sample dilution chosen should be optimized for each experimental system. Tap gently on side of plate to mix. Cover wells with plate cover and incubate for 2 hours at room temperature. Thoroughly aspirate or decant solution from wells and discard the liquid, Wash wells 4 times. Pipette 100 μl of Caspase-3 (Active) Detection Antibody solution into each well except the chromogen blank(s). Tap gently on the side of the plate to mix. Cover plate with plate cover and incubate for 1 hour at room temperature. Thoroughly aspirate or decant solution from wells and discard the liquid, Wash wells 4 times. Add 100 μl Anti-Rabbit IgG HRP Working Solution to each well except the chromogen blank(s). Prepare the working dilution as described in Preparing IgG HRP. Cover wells with the plate cover and incubate for 30 minutes at room temperature. Thoroughly aspirate or decant solution from wells and discard the liquid. Wash wells 4 times. Add 100 μl of Stabilized Chromogen to each well. The liquid in the wells will begin to turn blue. Incubate for 30 minutes at room temperature and in the dark. The incubation time for chromogen substrate is often determined by the microtiter plate reader used. Many plate readers have the capacity to record a maximum optical density (O.D.) of 2.0. The O.D. values should be monitored, and the substrate reaction stopped before the O.D. of the positive wells exceeds the limits of the instrument. The O.D. values at 450 nm can only be read after the Stop Solution has been added to each well. If using a reader that records only to 2.0 O.D., stopping the assay after […]
# Add 100 μl of Stop Solution to each well. Tap side of plate gently to mix. The solution in the wells should change from blue to yellow. Read the absorbance of each well at 450 nm having blanked the plate reader against a chromogen blank composed of 100 μl each of Stabilized Chromogen and Stop Solution. Read the plate within 2 hours after adding the Stop Solution. Use a curve fitting software to generate the standard curve. A four-parameter algorithm provides the best standard curve fit. Read the concentrations for unknown samples and controls from the standard curve. Multiply value(s) obtained for sample(s) by the appropriate dilution factor to correct for the dilution in step 3. Samples producing signals greater than that of the highest standard should be diluted in Standard Diluent Buffer and reanalyzed. […]
# Tubulin.). The absorbance of each microwell was read on a spectro-photometer at 450 nm. A standard curve is prepared from 7human Caspase-8 standard dilutions and human Caspase-8 concentration determined.
# 4.2.1.7. Bax activation assay
# [2] = system: Bax; test: Bax level assay in MCF-7; format: cell-based, human; details: for Bax Fold change: MCF-7, versus untreated control; for Bax Conc.: MCF-7 cancer cell line
# Procedure: Compounds 8g and 8h were evaluated as caspase-3, 8 and Bax activators and as down-regulator of the anti-apoptotic protein Bcl2 against the MCF-7 breast cancer cell line.[40] Appendix A ^† contains more details. […]
# Bring all reagents, except the human Bax-α Standard, to room temperature for at least 30 minutes prior to opening. The human Bax-α Standard solution should not be left at room temperature for more than 10 minutes. All standards, controls and samples should be run in duplicate. Refer to the Assay Layout Sheet to determine the number of wells to be used and put any remaining wells with the desiccant back into the pouch and seal the ziploc. Store unused wells at 4 °C. Pipet 100 μL of Assay Buffer into the S0 (0 pg/mL standard) wells. Pipet 100 μL of Standards #1 through #6 into the appropriate wells. Pipet 100 μL of the Samples into the appropriate wells. Tap the plate gently to mix the contents. Seal the plate and incubate at room temperature on a plate shaker for 1 hour at ~500 rpm. Empty the contents of the wells and wash by adding 400 μL of wash solution to every well. Repeat the wash 4 more times for a total of 5 washes. After the final wash, empty or aspirate the wells and firmly tap the plate on a lint free paper towel to remove any remaining wash buffer.
# Pipet 100 μL of yellow Antibody into each well, except the Blank. Seal the plate and incubate at room temperature on a plate shaker for 1 hour at ~500 rpm. Empty the contents of the wells and wash by adding 400 μL of wash solution to every well. Repeat the wash 4 more times for a total of 5 washes. After the final wash, empty or aspirate the wells and firmly tap the plate on a lint free paper towel to remove any remaining wash buffer. Add 100 μL of blue Conjugate to each well, except the Blank. Seal the plate and incubate at room temperature on a plate shaker for 30 minutes […]
# Pipet 100 μL of Substrate Solution into each well. Incubate for 30 minutes at room temperature on a plate shaker at ~500 rpm. Pipet 100 μL Stop Solution to each well. Blank the plate reader against the Blank wells, read the optical density at 450 nm. Calculate the average net Optical Density (OD) bound for each standard and sample by subtracting the average Blank OD from the average OD for each standard and sample. Using linear graph paper, plot the Average Net OD for each standard versus Bax concentration in each standard. Approximate a straight line through the points.
# The concentration of Bax in the unknowns can be determined by interpolation. […]
# Remove plate cover and empty the wells. […]
# Incubate the microwell strips at room temperature (18° to 25°C) for about 15 minutes, if available on a rotator set at 100 rpm.
SMILES,Caspase-3 Fold change [1],Caspase-3 Conc. [1] [pg/mL],Bax Fold change [2],Bax Conc. [2],Bax Conc. ([2]; listed as staurosporine) [pg/mL]
"COc1ccc(-n2cc(CSc3nc4ccccc4c(=O)n3-c3ccc(C)cc3)nn2)cc1 [Compound 8g, 2-(((1-(4-Methoxyphenyl)-1H-1,2,3-triazol-4-yl)methyl)thio)-3-(p-tolyl)quinazolin-4(3H)-one]",11,695 ± 5,39,315 pg/mL and 315 ± 9 pg/mL,–
"Cc1ccc(-n2cc(CSc3nc4ccccc4c(=O)n3-c3ccc(C)cc3)nn2)cc1 [Compound 8h, 2-(((1-(p-Tolyl)-1H-1,2,3-triazol-4-yl)methyl)thio)-3-(p-tolyl)quinazolin-4(3H)-one]",10,650 ± 5,37,295 pg/mL and 295 ± 9 pg/mL,–
"CN[C@@H]1C[C@H]2O[C@@](C)([C@@H]1OC)n1c3ccccc3c3c4c(c5c6ccccc6n2c5c31)C(=O)NC4 [Staurosporine, reference compound]",8,503 ± 4,35,280 ± 7 pg/mL,280
